Laboratory results as given in article PMC6522510 (Nature Communications, 2019).
pEC50: −log10 of the molar value. Where two headings read alike, the source gives them in different places. Numbered stars: 1 amine (or outer) side, 2 acyl side, 3 side chain; on linkers, the order of the positions; unused ones are H or OH. Bridge positions count the residues as written; N and C are the ends. Square brackets hold non-standard residues; d marks the D form. Peptide text beside a SMILES is read from it. I, II: the chains in the order shown. Actinocin(9to1) = Cc1c2oc3c(C)ccc(C(=O)[*:1])c3nc-2c(C(=O)[*:2])c(N)c1=O; NMeV = CN[C@H](C(=O)O)C(C)C; Sar = CNCC(=O)O

Columns and labels:
Experiment in all cases: Secondary dose-response HTS, Cell Titer Glo; call rule not given here
Format in all cases: cell-based, human
[1] = test system: ML2; details: ML-2
[2] = test system: CMK; details: CMK
[3] = test system: CHRF288-11
[4] = test system: U937
[5] = test system: M07e
[6] = test system: MV4-11; details: MV4-11; for pEC50: Homo sapiens
[7] = test system: CMS
[8] = test system: MOLM-13; details: MOLM-13
[9] = Homo sapiens, secondary HTS, 72 h, average of triplicate, read-out: EC50 ML2
[10] = Homo sapiens, secondary HTS, 72 h, average of triplicate, read-out: EC50 CMK
[11] = Homo sapiens, U-937, secondary HTS, 72 h, average of triplicate, read-out: EC50 U937
[12] = Homo sapiens, M-07e, secondary HTS, 72 h, average of triplicate, read-out: EC50 M07e
[13] = secondary HTS, 72 h, average of triplicate, read-out: EC50 MV4-11
[14] = secondary high-throughput screen, read-out: average effective concentration, MV4-11
[15] = Homo sapiens, HTS, secondary high-throughput screen, CMS, read-out: average effective concentration, CMS
[16] = Homo sapiens, secondary HTS, 72 h, average of triplicate, read-out: EC50 CMS
[17] = Homo sapiens, secondary HTS, 72 h, average of triplicate, read-out: EC50 MOLM-13
[18] = Homo sapiens, secondary high-throughput screen, read-out: average effective concentration, MOLM-13
[19] = secondary high-throughput screen
[20] = secondary high-throughput screen, CHRF288-11
[21] = secondary high-throughput screen, U937
[22] = secondary high-throughput screen, M07e
[23] = secondary high-throughput screen, CMS
[24] = Homo sapiens, secondary high-throughput screen, read-out: average effective concentration, ML-2
[25] = Homo sapiens, read-out: average effective concentration, CMK
[26] = Homo sapiens, HTS, secondary high-throughput screen, CHRF288-11, read-out: average effective concentration, CHRF288-11
[27] = Homo sapiens, U-937, secondary high-throughput screen, U937, read-out: average effective concentration, U937
[28] = Homo sapiens, M-07e, secondary high-throughput screen, M07e, read-out: average effective concentration, M07e
[29] = Homo sapiens, HTS, read-out: average effective concentration, CMS
[30] = secondary high-throughput screen, read-out: average effective concentration, CMK
[31] = secondary high-throughput screen, U937, read-out: average effective concentration, U937
[32] = secondary high-throughput screen, read-out: average effective concentration, ML-2
[33] = secondary high-throughput screen, CHRF288-11, read-out: average effective concentration, CHRF288-11
[34] = secondary high-throughput screen, M07e, read-out: average effective concentration, M07e

SMILES | average effective concentration, ML-2 [1, 19] | average effective concentration, CMK [2, 19] | average effective concentration, CHRF288-11 [3, 20] | average effective concentration, U937 [4, 21] | average effective concentration, M07e [5, 22] | average effective concentration, CMS [7, 23] | average effective concentration, MV4-11 [6, 19] | average effective concentration, MOLM-13 [8, 19] | other results
Cc1c2oc3c(C)ccc(C(=O)N[C@@H]4C(=O)N[C@H](C(C)C)C(=O)N5CCC[C@H]5C(=O)N(C)CC(=O)N(C)[C@@H](C(C)C)C(=O)O[C@@H]4C)c3nc-2c(C(=O)N[C@@H]2C(=O)N[C@H](C(C)C)C(=O)N3CCC[C@H]3C(=O)N(C)CC(=O)N(C)[C@@H](C(C)C)C(=O)O[C@@H]2C)c(N)c1=O [Dactinomycin, reference compound] (I: T[dV]P[Sar][NMeV] / II: T[dV]P[Sar][NMeV]; ester I:1-I:C, II:1-II:C; linker I:N-II:N via Actinocin(9to1)) | – | – | – | – | – | – | – | – | pEC50 [1, 9]: 9.00; pEC50 [2, 10]: 9.00; pEC50 ([3]; Homo sapiens, HTS, 72 h, secondary HTS, 72 h, average of triplicate, read-out: EC50 CHRF288-11): 9.00; pEC50 [4, 11]: 9.00; pEC50 [5, 12]: 9.00; pEC50 [6, 13]: 7.40; pEC50 [6, 14]: 7.37; pEC50 [7, 15]: 7.44; pEC50 [7, 16]: 7.40; pEC50 [8, 17]: 7.52; pEC50 [8, 18]: 7.54
C#Cc1cccc(Nc2ncnc3cc(OCCOC)c(OCCOC)cc23)c1 [ERLOTINIB] | Inactive | Inactive | Inactive | Inactive | Inactive | Inactive | – | – | pEC50 [6, 14]: < 5.00; pEC50 [8, 18]: < 5.00
Cc1cnc(Nc2ccc(OCCN3CCCC3)cc2)nc1Nc1cccc(S(=O)(=O)NC(C)(C)C)c1 [FEDRATINIB] | – | – | – | – | – | – | – | – | pEC50 [1, 24]: 5.54; pEC50 [2, 25]: 6.62; pEC50 [3, 26]: 6.12; pEC50 [4, 27]: 5.54; pEC50 [5, 28]: 5.70; pEC50 [6, 14]: 7.09; pEC50 [7, 29]: 6.15; pEC50 [8, 18]: 7.29
Cc1ccc(C(=O)COC(=O)c2cccc(NC(=O)c3ccc([N+](=O)[O-])cc3[N+](=O)[O-])c2)cc1 [FM19G11] | Inactive | Inactive | Inactive | Inactive | Inactive | Inactive | Inactive | Inactive | –
Nc1[nH]nc2nnc(-c3c(-c4ccccc4)nn4ccccc34)cc12 [FR 180204] | Inactive | Inactive | Inactive | Inactive | Inactive | Inactive | Inactive | Inactive | –
CSCC[C@H](NC(=O)[C@H](Cc1ccccc1)NC[C@@H](NC[C@@H](N)CS)C(C)C)C(=O)O [FTASE INHIBITOR I] | Inactive | Inactive | Inactive | Inactive | – | Inactive | Inactive | Inactive | average effective concentration, M07e ([5]; secondary high-throughput screen, […]): Inactive
COC(=O)[C@H](CCSC)NC(=O)c1ccc(NC[C@@H](N)CS)cc1-c1ccccc1 [FTI-277] | Inactive | Inactive | Inactive | Inactive | Inactive | Inactive | Inactive | Inactive | –
N[C@H](CCC(=O)N[C@@H](Cc1c[nH]c2ccccc12)C(=O)O)C(=O)O [GOLOTIMOD] | Inactive | Inactive | Inactive | Inactive | Inactive | Inactive | Inactive | Inactive | –
CNC(=O)c1c(F)cccc1Nc1nc(Nc2cc3c(cc2OC)CCN3C(=O)CN(C)C)nc2[nH]ccc12 [GSK1838705A] | Inactive | – | Inactive | – | Inactive | Inactive | Inactive | Inactive | pEC50 [2, 30]: 5.24; pEC50 [4, 31]: 5.21
COc1ncc(-c2ccc3nccc(-c4ccnnc4)c3c2)cc1NS(=O)(=O)c1ccc(F)cc1F [GSK-2126458] | – | – | – | – | – | – | – | – | pEC50 [1, 24]: 9.00; pEC50 [2, 25]: 9.00; pEC50 [3, 26]: 5.89; pEC50 [4, 27]: 9.00; pEC50 [5, 28]: 5.25; pEC50 [6, 14]: 9.00; pEC50 [7, 29]: 7.40; pEC50 [8, 18]: 6.03
O=C1Nc2ccc(I)cc2/C1=C/c1cc(Br)c(O)c(Br)c1 [GW 5074] | Inactive | Inactive | Inactive | Inactive | Inactive | Inactive | Inactive | Inactive | –
CC(C)=CCC[C@]1(C)C=Cc2c(O)c3c(c(CC=C(C)C)c2O1)O[C@]12C(=C[C@@H]4C[C@H]1C(C)(C)O[C@@]2(C/C=C(/C)C(=O)O)C4=O)C3=O [Gambogic acid, reference compound] | – | – | – | – | – | – | – | – | pEC50 [1, 9]: 6.82; pEC50 [2, 10]: 6.44; pEC50 ([3]; Homo sapiens, secondary HTS, 72 h, average of triplicate, read-out: EC50 CHRF288-11): 6.66; pEC50 [4, 11]: 6.72; pEC50 [5, 12]: 6.62; pEC50 [6, 13]: 6.77; pEC50 [7, 16]: 6.59; pEC50 [8, 17]: 6.72
O=[N+]([O-])c1c(Nc2cc(F)cc(Cl)c2)ccc2nonc12 [HIF-C2] | Inactive | Inactive | Inactive | Inactive | Inactive | Inactive | Inactive | – | pEC50 ([8]; secondary high-throughput screen, read-out: average effective concentration, MOLM-13): 7.89
O=C1c2ccccc2-c2nc3nnnn3nc21.O=C1c2ccccc2-c2nn3nnnc3nc21 [KP-372-1] | – | – | – | – | – | – | Inactive | Inactive | pEC50 [1, 32]: 8.22; pEC50 [2, 30]: 7.62; pEC50 [3, 33]: 7.42; pEC50 [4, 31]: 8.00; pEC50 [5, 34]: 7.28; pEC50 ([7]; secondary high-throughput screen, CMS, read-out: average effective concentration, CMS): 7.51
C[C@@H]1CN(CC(=O)Nc2ccc3c(c2)Cc2cccc(-c4cc(=O)cc(N5CCOCC5)o4)c2S3)C[C@H](C)O1 [KU60019] | Inactive | Inactive | Inactive | Inactive | Inactive | – | Inactive | Inactive | pEC50 [7, 15]: < 5.00
C[N+](C)(C)[C@@H](Cc1c[nH]c(=S)[nH]1)C(=O)[O-] [L-(+)-ERGOTHIONEINE] | Inactive | Inactive | Inactive | Inactive | – | Inactive | Inactive | Inactive | pEC50 [5, 34]: 5.49
Cn1c(/C=C/C(=O)NO)ccc1/C=C/C(=O)c1cccc(F)c1 [MC1568] | – | Inactive | – | – | – | Inactive | Inactive | Inactive | pEC50 [1, 32]: 5.37; pEC50 [3, 33]: 5.31; pEC50 [4, 31]: 5.47; pEC50 [5, 34]: 6.34
CCOC(=O)c1cc2ccccc2nc1C [MC-1626] | Inactive | Inactive | Inactive | Inactive | Inactive | Inactive | Inactive | Inactive | –
